What was measured:
[1] = test system: KG-1 cell lines (human acute myeloid leukemia cells); assay: AML cell (KG1) toxicity in AML-BMEC co-culture high-throughput screening assay; assay type: cell-based; conditions: percent toxicity to KG-1 cells normalized to DMF
Protocol: FIG. 4. Schematic of high throughput screening assay. AML cells are cultured on bone marrow derived endothelial cells. After 24 hours of exposure to compound treatment, the AML cells and endothelial cells are analyzed for viability using flow cytometry for 7-AAD and annexin. The phase contrast micrographs in the bottom portion of this figure are representative of untreated control and drug treated conditions. In the control situation, spindle shaped endothelial cells appear under the round shaped AML cells. In the drug treated conditions, some compounds disrupt the spindle shaped endothelial cells and lead to their detachment and death. […] This is optimal because of the high toxicity to the malignant cells and low toxicity to stromal cells. Stromal cell viability represents safety.
(§1) The values given for percent toxicity to KG-1 cells is normalized to DMF. To compare the average AML-LSC toxicity vs. AML total toxicity, fresh human primary leukemia bone marrow mononuclear cells were treated with single doses of compounds, 2470-23 and 2470-51, at a single time point, and the killing of the AML leukemia stem cell (LSC) population versus the total AML cell population was quantified (FIG. 1). […] Next, AML-LSC toxicity versus T lymphocyte (Jurkat) toxicity was investigated. […] The single-dose treatments of 2470-23 and 2470-51 on normal healthy blood stem cells (sourced from fresh umbilical cord blood) versus AML LSC were also compared.

Aqueous solubility = assay type: physicochemical; conditions: aqueous medium
Plasma protein binding = assay type: in vitro ADME
enolase [2] = assay: Enolase protein expression in AML cells; assay type: cell-based, human; conditions: FIG. 8A
Excerpt: (§2) FIG. 8A. Enolase protein expression. […] Thus, enolase correlates with malignant transformation, but is not changed by applying compounds of the present invention. FIG. 8B. Effect of compounds on enolase enzyme activity.

alpha-enolase = molecular target: T1, alpha-enolase (Homo sapiens, UniProt P06733); assay: Proteomic target identification (pronase protection, MS/MS); assay type: binding; conditions: FIG. 7A
T1 construct: endogenous in cells; host or cells: KG-1, primary AML cells (816, LPP4), CD34+ cells; lysates
T1 sequence (P06733 whole entry): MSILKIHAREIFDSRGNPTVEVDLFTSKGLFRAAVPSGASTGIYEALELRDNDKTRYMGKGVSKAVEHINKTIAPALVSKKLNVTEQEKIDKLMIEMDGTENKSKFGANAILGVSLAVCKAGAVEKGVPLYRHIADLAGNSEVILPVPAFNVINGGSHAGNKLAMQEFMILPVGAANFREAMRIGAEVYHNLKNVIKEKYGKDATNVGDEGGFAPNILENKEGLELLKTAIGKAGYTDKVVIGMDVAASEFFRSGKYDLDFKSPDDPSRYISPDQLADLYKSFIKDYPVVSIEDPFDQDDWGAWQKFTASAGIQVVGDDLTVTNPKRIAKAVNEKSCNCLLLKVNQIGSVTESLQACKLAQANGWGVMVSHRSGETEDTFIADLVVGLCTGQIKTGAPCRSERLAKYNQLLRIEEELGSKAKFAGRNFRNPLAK
Protocol: FIG. 6. This schematic illustrates the proteomics work flow in identifying protein targets for the compounds. AML cells (KG-1, AML 1:816, AML 2:LPP4) and health hematopoietic stem/progenitor cells (CD34+) were lysed and then mixed with either vehicle or a compound (e.g., 2470-51). Following compound-protein binding, pronase was used to cleave the proteins. Where the compound bound to proteins, this site was protected from pronase digestion. The peptides were then analyzed via gel-based target identification and label-free mass spectrometry.

Human plasma half-life = assay type: in vitro ADME
CYP450 3A4 = CYP450 3A4 (Homo sapiens, UniProt P08684); assay: CYP450 inhibition 3A4; assay type: in vitro ADME
Chain of CYP450 3A4 (P08684 whole entry): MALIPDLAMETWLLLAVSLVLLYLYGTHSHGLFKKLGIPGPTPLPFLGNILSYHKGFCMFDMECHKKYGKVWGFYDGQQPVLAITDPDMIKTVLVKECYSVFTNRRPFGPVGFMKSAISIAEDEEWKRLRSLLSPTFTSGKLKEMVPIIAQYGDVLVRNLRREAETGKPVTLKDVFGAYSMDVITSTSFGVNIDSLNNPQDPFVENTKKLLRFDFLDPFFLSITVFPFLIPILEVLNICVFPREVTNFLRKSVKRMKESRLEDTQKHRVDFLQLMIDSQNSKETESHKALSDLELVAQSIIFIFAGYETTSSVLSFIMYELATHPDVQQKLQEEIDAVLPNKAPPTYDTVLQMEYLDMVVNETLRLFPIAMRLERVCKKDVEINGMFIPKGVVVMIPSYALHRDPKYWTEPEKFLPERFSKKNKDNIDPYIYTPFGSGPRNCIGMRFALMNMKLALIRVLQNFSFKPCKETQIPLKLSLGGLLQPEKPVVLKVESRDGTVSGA

CYP450 2D6 = CYP450 2D6 (Homo sapiens, UniProt P10635); assay: CYP450 inhibition 2D6; assay type: in vitro ADME
Chain of CYP450 2D6 (P10635 whole entry): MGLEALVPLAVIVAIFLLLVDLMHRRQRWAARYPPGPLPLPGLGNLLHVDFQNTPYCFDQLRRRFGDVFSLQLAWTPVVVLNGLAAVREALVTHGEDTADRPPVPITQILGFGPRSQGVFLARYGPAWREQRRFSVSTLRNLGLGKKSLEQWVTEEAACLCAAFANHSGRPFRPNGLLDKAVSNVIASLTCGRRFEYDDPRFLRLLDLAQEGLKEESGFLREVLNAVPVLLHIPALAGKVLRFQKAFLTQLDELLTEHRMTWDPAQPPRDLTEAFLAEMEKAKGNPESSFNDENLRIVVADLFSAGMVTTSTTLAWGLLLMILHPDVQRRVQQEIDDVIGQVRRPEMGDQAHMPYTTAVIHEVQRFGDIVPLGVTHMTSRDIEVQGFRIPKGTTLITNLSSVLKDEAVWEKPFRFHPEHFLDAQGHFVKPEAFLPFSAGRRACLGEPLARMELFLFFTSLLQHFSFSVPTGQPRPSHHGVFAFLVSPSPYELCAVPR

enolase [3] = molecular target: enolase (Homo sapiens, UniProt P06733); assay: Enolase enzyme activity; assay type: biochemical; conditions: FIG. 8B
Chain of enolase (Homo sapiens, UniProt P06733) (P06733 whole entry): as the sequence (P06733 whole entry) above
Excerpt: as §2

PAMPA = assay type: in vitro ADME
[4] = test system: Primary human AML specimens (824, 872, 874); assay: Viability of primary human AML specimens; assay type: cell-based; conditions: 24 hours at 50 ng/mL; P<0.05; FIG. 5A
[5] = Microsomal stability, mouse; assay type: in vitro ADME; conditions: microsomes, read-out: Microsomal Stability, t1/2
[6] = Microsomal stability, rat; assay type: in vitro ADME; conditions: microsomes, read-out: Microsomal Stability, t1/2
primary human AML cells = assay: AML engraftment in NRGS mice injected with primary human AML cells; assay type: in vivo; conditions: 20 mg/kg IP TIW, two-week treatment, FIG. 9
Protocol: FIG. 9. […] Immunocompromised NRGS (NOD.CG-Rag1^tm1MomIl2rg^tm1Wjl (CMV-IL3, CSF2, KITLG) 1Eav/J) mice were given sub-lethal irradiation (200 cGy), followed by tail vein injection of primary human AML cells. At the end of four week, the animals were randomized into two-week treatment groups: vehicle-treated (PBS treatment control), cytarabine-treated 100 mg/kg IP TIW (positive treatment control), and 2470-51 20 mg/kg IP TIW. Bone marrows were examined for the presence of human CD45+ (green) and DAPI).

[7] = test system: bone marrow cells from healthy adults; assay: Viability of bone marrow cells from healthy adults; assay type: cell-based, human; conditions: FIG. 5B
[8] = test system: normal healthy blood stem cells (fresh umbilical cord blood); assay: Cord blood stem cell toxicity; assay type: cell-based, human; conditions: single-dose treatment; FIG. 3
Protocol: FIG. 3. Comparison of average AML-LSC toxicity vs. cord blood stem cell toxicity. The single-dose treatments of 2470-23 and 2470-51 on normal healthy blood stem cells (sourced from fresh umbilical cord blood) and AML LSC were compared.
as §1

[9] = test system: AML leukemia stem cell (LSC) population (CD34+CD38-CD123+); assay: AML-LSC toxicity vs. AML total toxicity in fresh primary leukemia bone marrow mononuclear cells; assay type: cell-based, human; conditions: for killing of AML LSC population versus total AML cell population: single dose, single time point, FIG. 1; for depletion of leukemia stem cells: single-dose treatment, FIG. 3
Protocol: FIG. 1. Comparing average AML-LSC toxicity vs. AML total toxicity. Fresh human primary leukemia bone marrow mononuclear cells were treated with single doses of compounds 2470-23 and 2470-51 at a single time point and the killing of the leukemia stem cell (LSC) population (defined as CD34+CD38-CD123+) was quantified versus the total AML cell population.
as §1

[10] = Microsomal stability, human; assay type: in vitro ADME; conditions: microsomes, read-out: Microsomal Stability, t1/2
[11] = test system: lymphoid (CD4+ Jurkat) versus myeloid (AML LSC) leukemia cells; assay: AML-LSC toxicity vs. Jurkat toxicity; assay type: cell-based, human; conditions: single-dose treatment; FIG. 2
Protocol: FIG. 2. Comparison of average AML-LSC toxicity vs. Jurkat toxicity.
as §1

CYP450 2C9 = CYP450 2C9 (Homo sapiens, UniProt P11712); assay: CYP450 inhibition 2C9; assay type: in vitro ADME
Chain of CYP450 2C9 (P11712 whole entry): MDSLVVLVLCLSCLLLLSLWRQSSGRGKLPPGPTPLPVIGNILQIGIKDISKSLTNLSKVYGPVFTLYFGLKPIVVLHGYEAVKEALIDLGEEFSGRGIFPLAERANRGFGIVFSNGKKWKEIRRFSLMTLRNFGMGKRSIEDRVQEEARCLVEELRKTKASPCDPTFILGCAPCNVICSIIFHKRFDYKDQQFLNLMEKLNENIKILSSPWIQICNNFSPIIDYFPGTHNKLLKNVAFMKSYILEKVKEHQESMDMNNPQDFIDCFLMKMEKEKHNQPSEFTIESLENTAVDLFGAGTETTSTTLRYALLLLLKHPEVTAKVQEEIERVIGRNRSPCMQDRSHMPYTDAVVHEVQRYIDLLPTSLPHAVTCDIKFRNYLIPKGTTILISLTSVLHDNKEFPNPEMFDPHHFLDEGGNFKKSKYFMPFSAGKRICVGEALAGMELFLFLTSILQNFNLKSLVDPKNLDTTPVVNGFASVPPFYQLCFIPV

CC(C)[C@H](CN)NC[C@H](C)NS(=O)(=O)c1ccc2ccccc2c1 [Compound 2470-49]
KG1 toxicity (50 μg/mL) [1]: 46.7%

CC(C)[C@@H](CN)NC[C@H](C)NS(=O)(=O)c1ccc(C(C)(C)C)cc1 [Compound 2470-15]
KG1 toxicity (50 μg/mL) [1]: 38.4%

CC(C)[C@H](CN)NC[C@H](C)NS(=O)(=O)c1ccc(C(C)(C)C)cc1 [Compound 2470-51]
solubility (Aqueous solubility): > 100 µM | fraction unbound (Plasma protein binding): 0.195 | enolase protein expression relative to vehicle (enolase [2]): did not change protein expression | binding to alpha-enolase peptide (MS/MS) (alpha-enolase): covalently bound | half-life (Human plasma half-life): > 200 min | IC50 (CYP450 3A4): > 20 µM | IC50 (CYP450 2D6): 10.8 µM | enolase enzymatic activity (enolase [3]): reduced in a dose-dependent fashion | PAMPA (PAMPA): 1e-06 cm/s | PAMPA (grade in words) (PAMPA): (moderate) | KG1 toxicity (50 μg/mL) [1]: 93.2% | AML cell viability compared to vehicle-treated controls [4]: significantly reduced AML cell viability | half-life [5]: 8 min | half-life [6]: 9 min | AML engraftment (human CD45+ in bone marrow) (primary human AML cells): significantly reduced AML engraftment | cell viability of healthy adult bone marrow cells compared to vehicle control [7]: did not reduce cell viability | depletion of healthy cord blood stem cells [8]: do not deplete healthy stem cells | killing of AML LSC population versus total AML cell population [9]: selectively kills the AML LSC fraction | depletion of leukemia stem cells [9]: do deplete the leukemia stem cells | half-life [10]: 33 min | AML-LSC toxicity vs. Jurkat toxicity [11]: specificity of these compounds for AML | IC50 (CYP450 2C9): > 20 µM

CC(C)C[C@H](CN)NC[C@H](CCO)NS(=O)(=O)c1ccc2ccccc2c1 [Compound 2470-40]
KG1 toxicity (50 μg/mL) [1]: 37.4%

CC(C)[C@@H](CN)NC[C@@H](NS(=O)(=O)c1ccc(I)cc1)C(C)C [Compound 2470-23]
KG1 toxicity (50 μg/mL) [1]: 45.9% | depletion of healthy cord blood stem cells [8]: do not deplete healthy stem cells | killing of AML LSC population versus total AML cell population [9]: selectively kills the AML LSC fraction | depletion of leukemia stem cells [9]: do deplete the leukemia stem cells | AML-LSC toxicity vs. Jurkat toxicity [11]: specificity of these compounds for AML
